Tests used:
SUM159-M1-p44 cells = experiment: Lung metastasis xenograft, SUM159-M1-p44 cells by tail-vein injection, BLI; assay type: in vivo, mouse; settings: three doses of 50 mg/kg in combination with 25 mg/kg paclitaxel, days 17, 19 and 21
Protocol: In another xenograft experiment, mice were injected with SUM159-M1-p44 cells via tail-vein injection, as described above, and randomized following injection. Metastatic burden was imaged on day 16 via intravital imaging. Mice were then treated with paclitaxel (25 mg/kg) and either vehicle or MBE1.5 (50 mg/kg) on days 17, 19 and 21. Lung metastatic burden was then imaged on day 22. Signals were normalized to day 16.

bone marrow cells = experiment: Ex vivo analysis of ALDH activity in murine lymphocytes (ALDEFLUOR); assay type: cell-based, mouse
Protocol: Bone marrow cells were collected from 12-week old […] mice via tibia and femur flush with PBS and were passed through a 100-μm cell sieve. Thymocytes and spleenocytes were isolated from corresponding tissues and were isolated by physical disruption against a 100 μm cell sieve. Cells were washed via centrifugation/resuspension and then suspended at 10^7 cells/mL. The ALDEFLUOR™ assay with or without MBE1 was then conducted on these cells as described except with the addition of either […] (Biolegend #100308), anti-CD11c (BD Pharmigen #561119), anti-CD45 (eBioscience 30-F11), or anti-CD317 (Biolegend 129c1) during the incubation period at 1:200.
Similar results (not shown) were obtained in other populations tested, including CD45-positive and CD3e-positive (CD45+CD3e+) and CD11c-positive and CD317-positive (CD11+CD317+).

Aldh1a2 = molecular target: T1, Aldh1a2 (Homo sapiens, UniProt O94788); experiment: ALDEFLUOR assay in 293T cells transiently transfected with human Aldh1a2; assay type: cell-based; settings: concentrations below 10 μM
T1 construct: expressed in transfected cells; host or cells: 293T, transient transfection
T1 sequence (O94788 1-518): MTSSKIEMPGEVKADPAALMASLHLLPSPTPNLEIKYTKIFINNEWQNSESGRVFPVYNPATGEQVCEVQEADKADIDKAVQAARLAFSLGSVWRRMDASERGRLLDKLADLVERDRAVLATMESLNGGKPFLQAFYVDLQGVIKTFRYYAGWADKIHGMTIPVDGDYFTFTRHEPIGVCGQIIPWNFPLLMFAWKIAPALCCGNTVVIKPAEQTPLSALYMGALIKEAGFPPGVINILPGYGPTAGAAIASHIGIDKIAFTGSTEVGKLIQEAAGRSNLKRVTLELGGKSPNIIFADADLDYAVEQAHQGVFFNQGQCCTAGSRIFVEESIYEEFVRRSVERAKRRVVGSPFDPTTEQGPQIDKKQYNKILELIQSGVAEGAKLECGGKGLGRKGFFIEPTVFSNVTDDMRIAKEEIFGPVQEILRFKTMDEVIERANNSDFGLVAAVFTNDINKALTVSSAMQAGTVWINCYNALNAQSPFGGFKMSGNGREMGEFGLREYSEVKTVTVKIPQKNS
Protocol: The coding sequences of Aldh1a1, Aldh1a2, Aldh1a3 and Aldh3a1 were cloned from cDNA made from pooled human reference RNA samples. Cloned sequences flanked by Age1 and Xho1 restriction sites were inserted into the pLex lentiviral plasmid. Clones were sequenced and compared against NCBI expressed sequence tags (ESTs) for accuracy. Viral production of each enzyme was performed by transfection into the 293T packaging cell line using PEI along with PsPax2 and VSVG packaging vectors. Viruses were collected and filtered at 0.45 μm, then cells were transduced using polybrene (8 μg/mL) for 12 hours, followed by culture with 1 μg/mL puromycin for the duration of experiments. All viral transduction and selection was performed on a cell population-wide basis.
Cells were counted, centrifuged and resuspended at 1,000,000 cells/mL in ALDEFLUOR™ buffer (Stemcell Technologies). ALDEFLUOR™ substrate (Stemcell Technologies, 1:200) and test compound or 1 mM DEAB were added to cell suspension and incubated at 37° C. for 45 minutes with vortexing every 15 minutes. Cells were centrifuged and resuspended in ALDEFLUOR™ buffer with DAPI at 5 μg/mL. Samples were analyzed with the BD LSR2 flow cytometry platform. Gating was performed using DEAB as a negative control.

SUM159-M1a cells = experiment: Lung metastasis xenograft, SUM159-M1a cells by tail vein injection, BLI; assay type: in vivo, mouse; settings: MBE1 IP in conjunction with paclitaxel, tail vein injection model
Protocol: All xenograft experiments were conducted on 8-week old female mice (athymic Nu/Nu, or NOD/SCID Gamma). Xenograft experiments were conducted using 125,000 SUM159-M1a cells in 100 μL PBS for tail vein or intracardiac injection. Mice were randomized following injection. Bioluminescent imaging (BLI) was conducted using the IVIS 200 system and retroorbital luciferin injection. For drug treatment, MBE1 (prepared as above) was given to mice via IP injection in conjunction with paclitaxel (5 mg/mL in 10% ethanol, 10% Kolliphor EL, 80% PBS) at the time intervals and dosages indicated in FIG. 5A (tail vein injection) and FIG. 6A (intracardiac injection).
FIG. 5B is a line graph of lung metastasis, as measured using bioluminescence imaging (BLI), versus time (days), and compares lung metastasis in the presence and absence of MBE1 in the mice from the experiment outlined in FIG. 5A. FIG. 6B is a line graph of bone metastasis, as measured using BLI, versus time (days), and compares bone metastasis in the presence and absence of MBE1 in the mice from the experiment outlined in FIG. 6A.

| Structure (SMILES) | lung metastasis by BLI (FIG. 14) (SUM159-M1-p44 cells) | effect on ALDEFLUOR activity of CD11c-positive bone marrow cells (FIG. 4B) (bone marrow cells; murine bone marrow) | effect on ALDEFLUOR activity of CD45-positive bone marrow cells (FIG. 4A) (bone marrow cells; murine bone marrow) | effect on ALDEFLUOR activity of all populations tested (incl. CD45+CD3e+, CD11+CD317+) (bone marrow cells; murine cells) | inhibition of Aldh1a2 activity (FIG. 2B) (Aldh1a2) | lung metastasis by BLI (FIG. 5B) (SUM159-M1a cells) |
| --- | --- | --- | --- | --- | --- | --- |
| CCc1ccccc1C(=O)Nc1cc2c(cc1F)NC(=O)CC2 [MBE1.5, 2-ethyl-N-(7-fluoro-2-oxo-1,2,3,4-tetrahydroquinolin-6-yl)benzamide] | caused regression of established metastatic disease | not affected | not affected | not affected | does not inhibit | – |
| CCc1cnccc1C(=O)Nc1cc2c(cc1F)NC(=O)CC2 [MBE1, 3-ethyl-N-(7-fluoro-2-oxo-1,2,3,4-tetrahydroquinolin-6-yl)isonicotinamide] | – | – | – | – | – | effective therapeutic to treat established metastatic disease |

— patent publication US12162855B2, “Tetrahydroquinolino derivatives for the treatment of metastatic and chemoresistant cancers” (THE TRUSTEES OF PRINCETON UNIVERSITY, priority 2018, dated 2024)
